Here are results for 3 compounds from ChEMBL document CHEMBL1201862, “PubChem BioAssay data set” (2004).

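Method: 48-hour compound exposure of cells in 96-well plates, five concentrations, linear interpolation of endpoints. At the GI50, growth is halved.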 Activity calls are given as the source filed them. Rule as the data show it: active = GI50 up to about 1.1 µM and inactive = higher.

Among the test systems are HOP-62; OVCAR-4; Malme-3M; HCT-15; UACC-62; COLO 205; UACC-257; HCC 2998; A498; Hs-578T; MDA-MB-231; DU-145; M14; BT-549; SNB-75; TK-10; MDA-MB-435; SK-MEL-2; CAKI-1; OVCAR-8.
Holding throughout (experiment): NCI anticancer screen, dose series, 48 h

`O=C1/C(=C/c2ccccc2)CN(C(=O)CCN2CCCC2)C/C1=C\c1ccccc1`: the GI50 in the assay on HOP-62 is 7310 nM (inactive); in the assay on OVCAR-4, 1570 nM (inactive); with Malme-3M, 3030 nM (inactive); with HCT-15, 1730 nM; in the assay on UACC-62, 1610 nM (inactive); in the assay on COLO 205, 1530 nM (inactive). Also, the GI50 is 2450 nM (inactive) in the assay with UACC-257; 1770 nM (inactive) in the assay on HCC 2998; 4170 nM (inactive) with A498; 282 nM (active) with Hs-578T; 1510 nM (inactive) with MDA-MB-231; 4480 nM (inactive) with DU-145. For the same compound, the GI50 in the assay with M14 was 1740 nM (inactive); in the assay on BT-549, 1560 nM (inactive); in the assay on SNB-75, 4980 nM (inactive); in the assay with TK-10, 3120 nM (inactive); in the assay with MDA-MB-435, 1280 nM (inactive); in the assay on SK-MEL-2 it was 2770 nM (inactive). Besides, the GI50 in the assay with CAKI-1 was 3980 nM (inactive); in the assay with OVCAR-8 it was 1530 nM (inactive).
Turning to `COc1cccc2c1C(=O)c1c(O)c3c(c(O)c1C2=O)CC(O)(C(O)CO)CC3OC1CC(N2CCOCC2)C(O)C(C)O1` (stereo not given), the GI50 is 3.15 nM (active) in the assay with HOP-62; 3.37 nM (active) in the assay on OVCAR-4; 2.51 nM (active) in the assay on Malme-3M; 3.53 nM in the assay on HCT-15; < 1 nM (active) in the assay on UACC-62; 1.77 nM (active) in the assay with COLO 205. Moreover, the GI50 with UACC-257 is 3.38 nM (active); in the assay on HCC 2998, < 1 nM (active); with A498 it was 1.35 nM (active); with Hs-578T, 14.6 nM (active); in the assay on MDA-MB-231, 16.5 nM (active); in the assay with DU-145, 7.03 nM (active). The GI50 in the assay on M14 was 2.95 nM (active); in the assay with BT-549, 29.4 nM (active); in the assay with SNB-75, 3.88 nM (active); in the assay on TK-10, 3.77 nM (active); in the assay on MDA-MB-435 it was 8.83 nM (active); with SK-MEL-2 it was 4.22 nM (active). Besides, the GI50 in the assay with CAKI-1 was 1.75 nM (active); in the assay with OVCAR-8, 1.82 nM (active).
Consider `COc1cc2c(cc1C)NC(=O)/C2=C/c1c(Cl)[nH]c2cc(C)c(OC)cc12`, for which the GI50 with HOP-62 is 10100 nM (inactive); with OVCAR-4, 5480 nM (inactive); in the assay with Malme-3M it was 11500 nM (inactive); with HCT-15, 3720 nM; with UACC-62 it was 2070 nM (inactive); in the assay with COLO 205, 2330 nM (inactive). For the same compound, the GI50 in the assay on UACC-257 was 9640 nM (inactive); in the assay with HCC 2998, 4110 nM (inactive); in the assay with A498, 8730 nM (inactive); in the assay on Hs-578T, 8650 nM (inactive); in the assay with MDA-MB-231, 13200 nM (inactive); in the assay with DU-145 it was 2360 nM (inactive). The GI50 in the assay with M14 is 2150 nM (inactive); in the assay on BT-549, 1360 nM (inactive); in the assay on SNB-75, 2340 nM (inactive); with TK-10 it was 7100 nM (inactive); with MDA-MB-435 it was 2690 nM (inactive); in the assay on SK-MEL-2, 8380 nM (inactive). Further, the GI50 is 4040 nM (inactive) with CAKI-1 and 5980 nM (inactive) with OVCAR-8.
